Structures can show the parent of a compound that is named as a salt.
How the values were obtained:
rats [1] = experiment: Catalepsy grid-test (motor side-effects); type: in vivo; conditions: for motor-side-effects (catalepsy): sc, doses 1-40 mg/kg
Protocol: (§1) To document the fact that the compounds cross the blood brain barrier, occupancy at the dopamine D2 receptors using in-vivo occupancy measures was examined in rats. The test compound was injected subcutaneously followed 30 minutes later by an intravenous injection of ^3H-raclopride. The animals were sacrificed 1 hour after drug administration. In animals combining occupancy and catalepsy, rats were tested for catalepsy 10 minutes before sacrifice. Animals were sacrificed by decapitation. Striata and cerebella were rapidly dissected, processed and analyzed as described by Kapur et al. (2000b) Compounds which crossed the blood brain barrier and gave predictable dose-response relationships were then tested to see if they gave catalepsy. Catalepsy is the time-honoured animal model to predict the propensity of compounds to give rise to extrapyramidal side-effects in humans. Catalepsy was measured using a grid-test by a rater blind to the treatment-assignment. The time that animals remained immobile was used as an index of catalepsy by transforming raw-scores into catalepsy scores, with a score of 1 as questionable catalepsy and scores of 2-5 reflecting severity of catalepsy (Ahlenius S et al. 1986).

dopamine D2 receptor = dopamine D2 receptor (Homo sapiens, UniProt P14416); experiment: Binding affinity for dopamine D2 receptor, 3H-raclopride as ligand (Seeman 1993)
Chain of dopamine D2 receptor (P14416 whole entry, species assumed): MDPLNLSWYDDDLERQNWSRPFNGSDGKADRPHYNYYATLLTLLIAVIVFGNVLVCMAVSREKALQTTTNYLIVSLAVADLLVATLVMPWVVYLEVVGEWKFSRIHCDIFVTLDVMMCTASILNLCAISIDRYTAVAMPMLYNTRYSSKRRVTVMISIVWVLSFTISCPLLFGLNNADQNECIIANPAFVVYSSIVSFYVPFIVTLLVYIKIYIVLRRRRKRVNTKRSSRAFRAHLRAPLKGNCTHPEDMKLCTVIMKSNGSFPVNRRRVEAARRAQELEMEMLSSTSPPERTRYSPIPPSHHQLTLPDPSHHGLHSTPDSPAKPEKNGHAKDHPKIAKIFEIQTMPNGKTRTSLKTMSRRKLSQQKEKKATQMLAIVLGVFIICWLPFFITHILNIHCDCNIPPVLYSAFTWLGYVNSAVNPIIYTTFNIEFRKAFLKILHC
Source text: As will be appreciated by those skilled in the art, Ki values depend on the method of measurement, pH, radiolabeling technique, tissue type, temperature and type of wash used.

dopamine D2 receptors = molecular target: T1, dopamine D2 receptors (Rattus norvegicus, UniProt P61169); experiment: In-vivo D2 receptor occupancy with 3H-raclopride; conditions: rats; for ED50: rat, sc in acidified saline; for D2 occupancy: dose 1-40 mg/kg/sc in acidified saline, sacrifice 1 hour after drug
T1 construct: Striata and cerebella were rapidly dissected, processed and analyzed as described by Kapur et al. (2000b); from tissue; host or cells: rat brain in vivo (striatum; cerebellum also dissected)
T1 sequence (P61169 whole entry): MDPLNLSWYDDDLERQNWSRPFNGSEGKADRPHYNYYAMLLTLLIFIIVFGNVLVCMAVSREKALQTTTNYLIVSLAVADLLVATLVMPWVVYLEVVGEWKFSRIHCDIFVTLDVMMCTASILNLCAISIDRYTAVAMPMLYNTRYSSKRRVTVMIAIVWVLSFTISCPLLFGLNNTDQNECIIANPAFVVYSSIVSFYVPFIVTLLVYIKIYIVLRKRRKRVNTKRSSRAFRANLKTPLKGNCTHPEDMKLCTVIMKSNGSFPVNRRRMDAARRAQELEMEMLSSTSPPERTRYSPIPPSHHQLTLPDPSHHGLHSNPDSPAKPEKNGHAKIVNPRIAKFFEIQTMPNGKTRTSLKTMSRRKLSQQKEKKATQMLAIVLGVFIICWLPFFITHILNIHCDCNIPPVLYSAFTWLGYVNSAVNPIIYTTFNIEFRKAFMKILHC
Protocol: as §1

rats [2] = experiment: Conditioned avoidance response (CAR), two-way active avoidance shuttlebox; type: in vivo
Protocol: Therefore the new compounds were tested for activity in this model. For conditioned avoidance-response, rats were trained and tested in a computer assisted two-way active avoidance (shuttlebox), with an 80 dB white-noise as a conditioned stimulus, followed ten seconds later by a 0.6 mA shock as the unconditioned stimulus. Details of the procedure have been described elsewhere (Wadenberg M L et al. 2000).

FOS protein = experiment: FOS immunohistochemistry; type: in vivo; conditions: rats, two hours after injection; for FOS protein induction in the nucleus accumbens: shell of nucleus accumbens
Protocol: In particular, all antipsychotics induce FOS in the nucleus accumbens regions while those likely to give rise to motor side-effects also induce FOS in the dorsolateral striatum (Robertson et al. 1994). For examining the distribution of FOS protein by the test compound, the test compound was injected into rats and two hours later, the animals were deeply anaesthetized with sodium phenobarbitol (100 mg/kg i.p.) and perfused transcardially, the brains removed and post-fixed. Immunostaining was performed on free-floating forty-micron sections with a rabbit-raised polyclonal primary anti-FOS antiserum (diluted 1:250 and incubated 48 hours at 4° C.) (4-17 aminoacids of human Fos; Oncogene Research Products, Cambridge, Mass., USA). Exposure to a biotinylated goat anti-rabbit secondary antibody (1:600, Vector Laboratories, Burlingame, Calif., USA) followed by incubation with horseradish peroxidase avidin-biotin complex (Vector Laboratories, Vector Laboratories, Burlingame, Calif., USA) was used to visualize the FOS staining. Fos-immunoreactive nuclei were counted within 400×400 μm grid at a magnification of 100× in the shell of nucleus accumbens and dorsolateral striatum.

SMILES	melting point	Ki (dopamine D2 receptor) [nM]	also measured
CN1CCN(C2=Nc3cc(Cl)ccc3Nc3ccccc32)CC1 [Clozapine, reference compound]	–	–	catalepsy (rats [1]; doses up to 20 mg/kg/sc): did not give rise to catalepsy
CC(C)N1CCN(C2=Nc3cc(C(F)(F)F)ccc3Oc3ccccc32)CC1 (as salt: HCl) [Example 4, 8-Trifluoromethyl-11-(4-isopropylpiperazin-1-yl)-dibenzo[b,f][1,4]oxazepine.HCl]	270 °C (dec.)	–	–
CCN1CCN(C2=Nc3cc(C(F)(F)F)ccc3Oc3ccccc32)CC1 [Example 1, 8-Trifluoromethyl-11-(4-ethylpiperazin-1-yl)-dibenzo[b,f][1,4]oxazepine]	76 to 77 °C	258	–
CC(C)N1CCN(C2=Nc3cc(Cl)ccc3Sc3ccccc32)CC1 [Example 15, 8-Chloro-11-(4-isopropylpiperazin-1-yl)-dibenzo[b,f][1,4]thiazepine.HCl]	–	58	–
CCN1CCN(C2=Nc3cc(Cl)ccc3Sc3ccccc32)CC1 [Example 12, 8-Chloro-11-(4-ethylpiperazin-1-yl)-dibenzo[b,f][1,4]thiazepine]	100 to 101 °C	63	–
CC(C)N1CCN(C2=Nc3cc(Cl)ccc3Oc3ccccc32)CC1 [Example 9, 8-Chloro-11-(4-isopropylpiperazin-1-yl)-dibenzo[b,f][1,4]oxazepine]	55 to 56 °C	150	–
CCCN1CCN(C2=Nc3cc(Cl)ccc3Oc3ccccc32)CC1 [Example 8, 8-Chloro-11-(4-propylpiperazin-1-yl)-dibenzo[b,f][1,4]oxazepine]	90 to 91 °C	23	–
OCCN1CCN(C2=Nc3cc(Cl)ccc3Oc3ccccc32)CC1 [Example 7, 8-Chloro-11-(4-(2′-hydroxyethyl)piperazin-1-yl)-dibenzo[b,f][1,4]oxazepine]	149 to 150 °C	108	ED50 (dopamine D2 receptors): 10 mg/kg; D2 occupancy (dopamine D2 receptors): 22-75%; motor-side-effects (catalepsy) (rats [1]): No animals showed any evidence of motor-side-effects; inhibition at 20 mg/kg (rats [2]; Rattus norvegicus, 20 mg/kg/sc): > 50%
O=C(CCCN1CCC(O)(c2ccc(Cl)cc2)CC1)c1ccc(F)cc1 [haloperidol, reference compound]	–	–	inhibition of avoidance (rats [2]; >0.05 mg/kg/sc, without catalepsy or escape deficits): robust inhibition of avoidance; FOS protein induction in the dorsolateral striatum (FOS protein): resulted in FOS in the dorsolateral striatum; FOS protein induction in the nucleus accumbens (FOS protein): robust FOS induction
CCN1CCN(C2=Nc3cc(Cl)ccc3Oc3ccccc32)CC1 [Example 6, 8-Chloro-11-(4-ethylpiperazin-1-yl)-dibenzo[b,F][1,4]oxazepine]	–	42	ED50 (dopamine D2 receptors): ~5 mg/kg; D2 occupancy (dopamine D2 receptors): 5-81%; motor-side-effects (catalepsy) (rats [1]): No animals showed any evidence of motor-side-effects; inhibition at 10 mg/kg (rats [2]; Rattus norvegicus, 10 mg/kg/sc): > 50%; FOS protein induction in the dorsolateral striatum (FOS protein): no induction; FOS protein induction in the nucleus accumbens (FOS protein): robust induction
CCCCN1CCN(C2=Nc3cc(Cl)ccc3Oc3ccccc32)CC1 [Example 10, 8-Chloro-11-(4-butylpiperazin-1-yl)-dibenzo[b,f][1,4]oxazepine]	97 to 98 °C	28	–
OCCN1CCN(C2=Nc3cc(Cl)ccc3Sc3ccccc32)CC1 [Example 13, 8-Chloro-11-(4-(2′-hydroxyethyl)piperazin-1-yl)-dibenzo[b,f][1,4]thiazepine]	110 to 111 °C	88	–
CCCCN1CCN(C2=Nc3cc(C(F)(F)F)ccc3Oc3ccccc32)CC1 [Example 5, 8-Trifluoromethyl-11-(4-butylpiperazin-1-yl)-dibenzo[b,f][1,4]oxazepine.HCl]	–	250	–
CC(C)N1CCN(C2=Nc3cc(C(F)(F)F)ccc3Oc3ccccc32)CC1 [Example 4, 8-Trifluoromethyl-11-(4-isopropylpiperazin-1-yl)-dibenzo[b,f][1,4]oxazepine.HCl]	–	215	–
OCCN1CCN(C2=Nc3cc(C(F)(F)F)ccc3Oc3ccccc32)CC1 [Example 2, 8-Trifluoromethyl-11-(4-(2′-hydroxyethyl)piperazin-1-yl)-dibenzo[b,f][1,4]oxazepine]	110 to 111 °C	414	–
CCCCN1CCN(C2=Nc3cc(C(F)(F)F)ccc3Oc3ccccc32)CC1 (as salt: HCl) [Example 5, 8-Trifluoromethyl-11-(4-butylpiperazin-1-yl)-dibenzo[b,f][1,4]oxazepine.HCl]	240 °C (dec.)	–	–

— patent US6890919B2, “Atypical antipsychotic agents having low affinity for the D2 receptor” (priority 2001, dated 2005)
